In publication PMC9182347, “α-Glucosidase, α-Amylase and Antioxidant Evaluations of Isolated Bioactives from Wild Strawberry” (Molecules, 2022):
Values joined by “and” are separate entries in the source; they are usually repeats but may differ in a detail not shown here. Identical values can stand only once.

Tests used:
[1] = DPPH free radicals scavenging assay; settings: for DPPH Percent Inhibition: mean ± SEM, n = 3
Experimental: The antioxidant activity was carried out for F. indica extracts, semi-purified ethyl acetate fractions and isolated compounds using DPPH free radicals. DPPH solution was prepared (24 mg/100 mL of methanol). Stock solutions (1 mg/mL) of F. indica extracts and isolated compounds were prepared in methanol and then diluted to 1000, 500, 250, 125, 62.5 μg/mL. Sample and DPPH solutions were mixed in a ratio of 1:1 and were incubated at 23 °C for 30 min. Finally, absorbance was measured at 517 nm using UV spectrophotometer (Thermo electron corporation, Waltham, MA, USA). Ascorbic acid was used as positive control. Percent radical scavenging activity was measured using the reported equations [61].
(§1) The half inhibitory concentration (IC50) was calculated using Microsoft Excel program as per our previously reported method.

α-amylase = test: In vitro α-amylase inhibition; type: biochemical; settings: for α-Amylase Percent Inhibition: mean ± SEM, n = 3
Experimental: The amylase solution was prepared in phosphate buffer. The solutions of the F. indica and isolated compounds (62.50 to 1000 µg/mL) were added to the amylase solution and allowed to react. After reaction completion, starch solution was added and incubated as per the standard method. Afterwards, a solution of dinitro-salicylic acid was added to both test and control groups. The final solutions were heated for 3 min in boiling water and the absorbances were measured at […]. The experiments were performed in triplicates and percent inhibitions were calculated.
as §1

α-glucosidase = α-glucosidase (Saccharomyces cerevisiae, UniProt P53341); type: biochemical
Chain of α-glucosidase (P53341 whole entry): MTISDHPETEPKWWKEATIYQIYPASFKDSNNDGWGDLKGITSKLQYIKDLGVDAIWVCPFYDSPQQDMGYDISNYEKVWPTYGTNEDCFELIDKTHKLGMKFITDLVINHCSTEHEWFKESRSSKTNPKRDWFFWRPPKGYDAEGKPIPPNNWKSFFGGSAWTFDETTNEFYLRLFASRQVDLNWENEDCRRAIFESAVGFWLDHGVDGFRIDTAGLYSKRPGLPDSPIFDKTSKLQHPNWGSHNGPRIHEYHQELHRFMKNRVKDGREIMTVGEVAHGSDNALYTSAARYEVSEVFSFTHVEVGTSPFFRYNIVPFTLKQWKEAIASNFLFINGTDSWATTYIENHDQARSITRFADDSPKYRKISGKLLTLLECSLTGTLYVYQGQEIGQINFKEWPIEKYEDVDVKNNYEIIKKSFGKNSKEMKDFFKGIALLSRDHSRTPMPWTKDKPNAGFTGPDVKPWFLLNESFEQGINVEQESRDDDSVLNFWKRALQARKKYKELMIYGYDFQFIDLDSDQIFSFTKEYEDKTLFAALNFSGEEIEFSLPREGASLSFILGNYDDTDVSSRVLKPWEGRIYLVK
Experimental: The α-glucosidase solution (120 μL) of 0.50 U/mL in 0.10 M phosphate buffer (pH 6.90) was prepared and p-nitrophenyl-α-D-glucopyranoside (5 mM) was added as substrate solution. Different concentrations ranging from 62.50 µg/mL to 1000 µg/mL of the crude extracts, semi-purified fractions and isolated compounds of F. indica were prepared accordingly. The plant’s samples (extracts, semi-purified and purified compounds) were mixed with the solutions of enzyme as per the experiment and were incubated at 37 °C.
After initial incubation for 15 min, 20 μL p-nitrophenyl-α-D-glucopyranoside solution was mixed and was again incubated in the same way. Finally, 80 μL solution of sod. carbonate (0.20 M) was added to finish up the reaction. The solution containing all the substrates except α-glucosidase served as a blank. The absorbances of experiments were measured at 405 nm. The experiments were repeated 3 times and the calculations were made as per the standard protocols.
as §1

Question: For `COc1c(O)c(C)c(Cl)c(OC)c1Cl` [Compound 1, 2,4-dichloro-6-hydroxy-3,5-dimethoxytoluene], which “DPPH IC50” value [1] is on record?
Answer: The value was 7.62 µg/mL.

Question: What about the “α-Amylase IC50” value (α-amylase) of the same molecule?
Answer: The value was 15.03 µg/mL and 17.65 µg/mL.

Question: Which results are given for `CC(C)=CC(=O)CC(C)c1ccc(C)cc1` (stereo not shown) [Compound 2, 2-methyl-6-(4-methylphenyl)-2-hepten-4-one]?
Answer: DPPH IC50 [1]: 14.30 µg/mL; α-Amylase IC50 (α-amylase): 16.56 µg/mL

Question: Which “DPPH IC50” value [1] does the source give for `O=C1O[C@H]([C@@H](O)CO)C(O)=C1O` [Ascorbic acid] here?
Answer: Its value is 4.98 µg/mL.

Question: What about the “DPPH Percent Inhibition” value ([1]; 62.5 μg/mL) of the same molecule?
Answer: The value was 75.45 ± 0.90%.

Question: And the “DPPH Percent Inhibition” value ([1]; 125 μg/mL)?
Answer: The value was 77.61 ± 0.43%.

Question: And the “DPPH Percent Inhibition” value ([1]; 250 μg/mL)?
Answer: Its value is 82.40 ± 0.20%.

Question: What about the “DPPH Percent Inhibition” value ([1]; 500 μg/mL) of the same molecule?
Answer: The value was 87.08 ± 0.47%.

Question: And the “DPPH Percent Inhibition” value ([1]; 1000 μg/mL)?
Answer: The value was 91.90 ± 0.96%.

Question: Which results are given for `C[C@H]1O[C@H](O[C@H]2[C@H](O)[C@@H](O)[C@@H](O[C@H]3[C@H](O)[C@@H](O)C(O)O[C@@H]3CO)O[C@@H]2CO)[C@H](O)[C@@H](O)[C@@H]1N[C@H]1C=C(CO)[C@@H](O)[C@H](O)[C@H]1O` (stereo partly shown) [Acarbose, acarbose]?
Answer: α-Glucosidase Percent Inhibition (α-glucosidase): 96.00 ± 0.30% and 90.61 ± 0.43% and 84.03 ± 0.86% and 77.58 ± 0.77% and 71.48 ± 0.74%; α-Amylase Percent Inhibition (α-amylase; 62.5 μg/mL): 63.26 ± 0.93%; α-Amylase Percent Inhibition (α-amylase; 125 μg/mL): 67.05 ± 0.49%; α-Amylase Percent Inhibition (α-amylase; 250 μg/mL): 71.56 ± 0.49%; α-Amylase Percent Inhibition (α-amylase; 500 μg/mL): 74.03 ± 0.64%; α-Amylase Percent Inhibition (α-amylase; 1000 μg/mL): 82.43 ± 0.52%
